Source: patent US12527741B2, “Modular dendron micelles for treatment of pulmonary diseases related to fibrosis and viral infection including COVID-19” (priority 2021, dated 2026)
Where no end group is shown, it is not given here.

Tests used:
[1] = system: idiopathic pulmonary fibrosis; settings: IPF patients; cited from earlier work
[2] = system: 7860 cells; assay: Binding to high PD-L1 expressing cells; type: cell-based; settings: fluorescence
Source text: (§1) (SEQ ID NO: 5), optimized from the literature.

[3] = system: MCF-7 cells; assay: Binding to cells with low PD-L1 expression; type: cell-based
Source text: as §1

[4] = target: PD-L1 (Homo sapiens, UniProt Q9NZQ7); settings: SPR
Chain of PD-L1 (Q9NZQ7 19-290): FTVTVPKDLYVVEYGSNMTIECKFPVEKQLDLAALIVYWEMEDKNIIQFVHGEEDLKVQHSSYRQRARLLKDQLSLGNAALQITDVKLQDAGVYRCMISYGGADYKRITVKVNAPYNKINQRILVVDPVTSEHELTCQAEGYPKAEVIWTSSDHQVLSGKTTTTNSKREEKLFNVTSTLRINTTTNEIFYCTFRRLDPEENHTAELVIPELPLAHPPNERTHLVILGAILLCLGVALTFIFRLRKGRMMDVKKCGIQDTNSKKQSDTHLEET

[5] = Hydrophobicity (log P) of BRD4 inhibitors; type: physicochemical
[6] = Drug loading and encapsulation efficiency of PCL14K-DMs; type: physicochemical; settings: initial loading 20% wt, Dialysis
[7] = target: BRD4 BD1 (Homo sapiens, UniProt O60885); assay: Binding affinity to BRD4 BD1
Source text: (§2) BRD4 is a member of the bromodomain and extraterminal (BET) protein family, containing two conserved bromodomains (BD). The BD is a high-affinity binding pocket for BRD4 binding to acetylated Lys residues on histones and transcription factors critical for histone acetyltransferase (HAT) activity. Small molecule BRD4 inhibitors that interact with the BRD4 BD inhibit BRD4 function by displacing BRD4 from genome binding sites, disrupting coactivator binding, and inhibiting its atypical HAT activity. A major limitation of pharmacological approaches to modifying BRD4 is that available inhibitors have poor selectivity for BRD isoforms. A third generation BRD4 inhibitor (BRD4i) with high selectivity for the BRD4 BD1 domain has been identified. This compound, ZL0591, binds with approximately 100 nM affinity to BRD4 BD1, but has 10× lower affinity for the BRD4 BD2 domain, and similarly has low affinity for BRD3.

[8] = target: BRD4 BD2 domain (Homo sapiens, UniProt O60885); assay: Binding affinity to BRD4 BD2
Source text: as §2

[9] = target: BRD3 (Homo sapiens, UniProt Q15059); assay: Binding affinity to BRD3
Chain of BRD3 (Q15059 whole entry, species assumed): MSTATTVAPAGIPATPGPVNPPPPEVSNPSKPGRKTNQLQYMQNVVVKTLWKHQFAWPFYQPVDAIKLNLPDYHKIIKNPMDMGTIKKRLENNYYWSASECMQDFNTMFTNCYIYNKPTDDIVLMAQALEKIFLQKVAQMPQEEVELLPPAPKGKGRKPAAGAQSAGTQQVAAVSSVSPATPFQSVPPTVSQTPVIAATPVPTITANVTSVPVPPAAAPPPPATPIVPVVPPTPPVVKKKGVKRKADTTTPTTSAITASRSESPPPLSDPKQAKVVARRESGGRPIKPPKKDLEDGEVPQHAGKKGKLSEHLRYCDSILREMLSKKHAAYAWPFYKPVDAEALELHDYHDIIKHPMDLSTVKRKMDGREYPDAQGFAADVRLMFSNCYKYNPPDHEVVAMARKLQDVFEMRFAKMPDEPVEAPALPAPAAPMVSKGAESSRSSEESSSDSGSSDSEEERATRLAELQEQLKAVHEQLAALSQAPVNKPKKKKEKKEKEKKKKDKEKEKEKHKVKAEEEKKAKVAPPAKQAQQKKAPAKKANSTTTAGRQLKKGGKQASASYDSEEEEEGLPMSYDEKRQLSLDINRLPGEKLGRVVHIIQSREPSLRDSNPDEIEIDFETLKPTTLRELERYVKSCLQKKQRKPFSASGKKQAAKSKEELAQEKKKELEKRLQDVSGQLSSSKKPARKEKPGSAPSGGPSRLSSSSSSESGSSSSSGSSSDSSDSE
Source text: as §2

[10] = system: Bleomycin-induced fibrosis; assay: Bleomycin-induced pulmonary fibrosis, therapeutic dosing; type: in vivo, mice
[11] = Intravenous half-life; type: in vivo
[12] = system: TGFβ-induced NOX4/SM22α/FN1 expression; assay: TGFβ-induced myofibroblast transition, Q-RT-PCR of NOX4, SM22α and FN1; type: cell-based
[13] = system: fibroblast contractility; type: cell-based; settings: TGFβ-induced
[14] = system: BRD isoforms; type: binding; settings: data not shown

Molecule: Cc1ccc(=O)n(-c2ccccc2)c1 [pirfenidone]
- Decrease/loss of forced vital capacity (FVC) [1]: slows
- Progression-free survival [1]: improves

Molecule: G7-pPD1: PD-L1-binding peptide pPD-1 conjugated to G7 PAMAM dendrimers (HVVWHRESPSGQTDTLAA; also: conjugated to G7 PAMAM dendrimers, site not given here)
- Binding to PD-L1 expressing cells [2]: selective binding
- Binding to PD-L1 expressing cells ([2]; listed as dendrimer-pPD-1): specific interaction
- Interaction with low PD-L1 expression cells [3]: lack of observed interactions
- KD compared with full antibody (aPD-L1) [4]: comparable

Molecule: COC(=O)c1ccc2c(c1)NC(=O)/C2=C(\Nc1ccc(N(C)C(=O)CN2CCN(C)CC2)cc1)c1ccccc1 [Nintedanib, nintedanib]
- Decrease/loss of forced vital capacity (FVC) [1]: efficacy was shown

Molecule: COc1cc(OC)c2c(=O)cc(-c3cc(C)c(OC[C@H](O)CN4CCN(C)CC4)c(C)c3)oc2c1 [ZL0516]
- log P [5]: 2.89
- Drug Loading % [6]: 0.70 ± 0.17%
- Encapsulation Efficiency % [6]: 2.52 ± 0.17%

Molecule: O=C(Nc1ccc(C(F)(F)F)cc1)Nc1ccc(S(=O)(=O)N2CCC[C@H]2CN2CCC(O)CC2)cc1 [ZL0591]
- Kd [7]: ~100 nM
- Lower affinity for BRD4 BD2 domain relative to BD1 [8]: 10 ×
- Affinity for BRD3 [9]: low affinity
- Pulmonary collagen content (hydroxyproline in total lung homogenates) ([10]; 10 mg/kg/dose systemic (IP), started 14 d after bleomycin, 14 d of treatment): significantly reduced
- Blood oxygen saturation ([10]; bleomycin- and BRD4 inhibitor-treated vs controls): increase
- Alveolar consolidation and fibrotic pattern (Massons Trichrome) ([10]; fixed lung sections): substantially reduced
- Modified Ashcroft indices ([10]; scored by independent pathologist): reduction in Ashcroft indices was statistically significant
- Lung density by microCT ([10]; vs bleomycin treated only): reduction
- Intravenous T1/2 [11]: 11.8 h

Molecule: Cc1sc2c(c1C)C(c1ccc(Cl)cc1)=N[C@@H](CC(=O)OC(C)(C)C)c1nnc(C)n1-2 [JQ1]
- FN1 expression [12]: effectively blocked
- NOX4 expression [12]: effectively blocked
- SM22α expression [12]: effectively blocked
- Contractility (retraction of collagen plugs) [13]: effectively inhibited
- Discrimination between BRD isoforms [14]: no discrimination
